The values that follow come from US7432245B2, “Pharmaceutical formulation comprising a peptide angiogenesis inhibitor” (Abbott Laboratories Inc., priority 2002, dated 2008).

Counter-ions that a name gives are not always drawn. Where a SMILES comes first, the peptide text is derived from it. [ ]: non-standard residue; d: D form. Nva = CCC[C@H](N)C(=O)O; Sar = CNCC(=O)O

This data set can be described thus: In vitro release from PLG gels into buffer at 37° C. It counts as physicochemical. Particulars: solution of 5% in 2:1 NMP/TA without PLG, 5 mM PBS buffer (pH 7.4), FIG. 1. The protocol:
The samples of gel formulations of the acetate salt of formula (Ia) in PLG and NMP/TA were immersed in 5 mM PBS buffer (pH 7.4) and incubated at 37° C. At a predetermined time, 1 mL of the dissolution medium was withdrawn from the dissolution container, filtered, and assayed for the concentration of the acetate salt of formula (Ia) by HPLC. Fresh PBS buffer (1 mL) was added to replace the withdrawn medium.
The in vitro drug release of the acetate salt of formula (Ib) from the PLG gel formulations (IV) and (V) (from Example 6) was determined by the method described in Example 4.
The in vitro drug release profiles of PLG (24 KD) gel formulations were obtained by the methods described in Example 4.
Formulations of valproate (formulation VI), octanoate (formulation VII), and pivalate (formulation VIII) salts of the compound of formula (Ib) were prepared by substituting the appropriate salts (prepared as described in Example 1b) for the acetate salt in Example 6B. […] In addition, a formulation (formulation IX) that contained 6.0% pivalate salt of formula (Ib), 32.9% PLG (13 KD, 50:50 polymer ratio), 40.4% NMP and 20.7% TA was also prepared. The in vitro drug release profiles of formulations VI, VII, VIII, and IX were obtained by the methods described in Example 4 substituting 50 mM phosphate buffer (pH 7.4) for 5 mM PBS buffer. […]

As for `CCC[C@H](NC(=O)[C@@H](NC(=O)[C@H](NC(=O)[C@@H](NC(=O)CNC(=O)CN(C)C(C)=O)C(C)C)[C@H](C)CC)[C@@H](C)O)C(=O)N[C@H](C(=O)N[C@@H](CCCNC(=N)N)C(=O)N1CCC[C@H]1C(=O)NCC)[C@@H](C)CC` [acetate salt of formula (Ia), N-Ac-Sar-Gly-Val-DIle-Thr-Nva-Ile-Arg-ProNHCH2CH3] (Ac-[Sar]GV[dI]T[Nva]IRP-NHEt), the “in vitro release profile” value is on record as “no sustained release”.
